For one test, the target named is T1, recombinant WT HIV-1 RT (Human immunodeficiency virus type 1 group M subtype B, UniProt P03367).
T1 construct: The p66/p51 HIV-1 RT heterodimer engineered with a N-terminal histidine tag; His tag (histidine tag) (N); made in house; host or cells: Escherichia coli strain M15 (vector pRT6H-PR)
As to the kind of experiment: biochemical. Conditions: for IC50: RT Inhibition—IC50 ± SEM, WT RT DDDP activity; for Ligand efficiency (LE): binding to WT RT, LE = −1.4(logIC50)/N; for fold improvement on parent compound B-1: IC50 vs B-1 IC50 >1000 μM in the radioactive RT assay. Here is the method: (§1) The inhibitory activity of all compounds was evaluated in vitro in assays that measure the DNA-dependent DNA polymerase (DDDP) activity of HIV-1 RT. Compounds were tested against recombinant WT and drug-resistant HIV-1 RT mutants (K103N, Y181C or K103N/Y181C). […] The IC50 value of nevirapine was determined in parallel to control for the performance of the assay. […] These RT mutations either reduce the rate of entry of NNRTIs to the binding pocket (K103N) or remove aromatic interactions that favor binding (Y181C). Initially, compound IC50 values were determined in an assay that quantifies DDDP activity mediated by HIV-1 RT using a radiolabeled ^33PdTTP substrate and more recently using a nonradioactive PicoGreen-based spectrophotometric assay.
(§2) Recombinant HIV-1 RT: The p66/p51 HIV-1 RT heterodimer engineered with a N-terminal histidine tag was expressed from the pRT6H-PR vector (provided by Nicolas Sluis-Cremer) which is based on pRT6H-PROT [37], except that the RT coding region is derived from the infectious molecular clone xxLAI [38]. This xxLAI clone contains the HIV-1LAI backbone and is engineered with silent mutations introducing Xma I and Xba I sites in the RT coding region at nucleotide positions 40–45 and 1470 to 1475, respectively. pRT6H-PR expressing the NNRTI drug-resistant mutations K103N, Y181C and K103N/Y181C were generated by subcloning Xma I/Xba I fragments in xxLAI harboring the desired NNRTI mutations (Giacobbi NS and Sluis-Cremer 2017 AAC) into the corresponding restriction sites in the RT coding region of p6HRT-PR. RT was expressed in Escherichia coli strain M15 and purified using Ni-NTA chromatography as previously described. RT concentrations were determined spectrophotometrically at 280 nm using an extinction coefficient (e280) of 260, 450 M^−1 cm^−1.
(§3) Nevirapine was included in assays as a positive control for inhibiting RT polymerase activity. The DDDP assay was performed by first adding 25 ng of HIV-1 RT to test compound in 96-well plates followed by initiating RT polymerase activity by adding 200 ng of activated calf thymus (ACT) DNA (Sigma Aldrich), 0.2 µCi ^33P-α-dTTP (Perkin Elmer), 50 mM Tris-HCl pH 7.8 50 mM KCl, […], 50 µM dNTP mix (Bioline), 0.1 mg/mL bovine serum albumin (New England Biolabs), 0.01% IGEPAL (Sigma) and 1 mM dithiothreitol. Reactions contained 2.5% dimethyl sulfoxide (DMSO). Following incubation at 37 °C for 10 min, samples from duplicate wells were applied to Whatman DE81 ion-exchange paper (GE Healthcare); dried membranes were washed in 2X saline-sodium citrate (SSC) buffer; and incorporated counts were quantified using an FLP-2000 phosphorimager (Fujifilm) or Typhoon Trio Phosphorimager (GE Healthcare) as published. Dose–response curves were generated using PRISM GraphPad version 8 by plotting the log transformed drug concentrations against percentage inhibition of DDDP activity compared to the no drug control using non-linear regression analysis.
(§4) Non-radioactive DDDP Assay: DDDP assays were also performed using a PicoGreen based spectrophotometric assay to detect double-stranded DNA synthesized by recombinant HIV-1 RT [15]. Assays were performed as described for the […] DDDP assay except that instead of ACT, the reaction contained 40 nM of a template/primer comprising a 200 nt DNA template (5′-[…] […]-3′) annealed to a 18 nucleotide DNA primer (5′-[…]-3′), 50 mM Tris-HCl pH 7.8, 50 mM KCl, 10 mM MgCl2 and 50 µM dNTP mix.

A further test concerns the target T2, His-tagged HIV-1 RT WT (Human immunodeficiency virus type 1 group M subtype B, UniProt P03367).
T2 construct: The p66/p51 HIV-1 RT heterodimer engineered with a N-terminal histidine tag; His tag (histidine tag) (N); made in house; host or cells: Escherichia coli strain M15 (vector pRT6H-PR)
As to the kind of experiment: Surface plasmon resonance, WT RT. The class given is binding. How it is done:
(§5) Compound binding to recombinant HIV-1 RT was measured by surface plasmon resonance (SPR). SPR is an optical biosensor detection method that involves passing an analyte (often a fragment) in a buffer solution over a gold surface chip with an immobilized protein (RT enzyme) and detecting the change in plasmon resonance angle which is dependent on the refractive index of the medium near the surface. As compounds bind to the target protein, the refractive index changes proportionally to the extent of binding. This can then be used to measure the association and dissociation kinetics of binding as well as the compound’s affinity for binding.
(§6) SPR assays were performed on a Biacore S200 (GE Healthcare). His-tagged RT (WT, K103N, Y181C or K103N/Y181C) was immobilized on the surface of a Biacore compatible NIHC 1500M (Xantec) chip according to manufacturer’s instructions. Following 3 injections 300 s each of 0.5 M EDTA, the chip surface was activated with a 120 s injection of 5 mM NiCl2 followed by a 2100 s injection of 130 nM RT. The final immobilization level of RT was typically 14,000–27,000 RU. SPR experiments were carried out at 25 °C using a flow rate of 50 µL/min in running buffer. The running buffer was 1.053 × (HBS pH 7.4 + 50 µM EDTA + 0.005% Tween-20). Compounds were provided as 200 mM stocks and diluted in running buffer to obtain the concentrations required for dose-response studies (0, 6.25, 12.5, 25, 50, 100 and 200 µM). Raw sensorgram data were analyzed using Biacore S200 Evaluation Software. Dose-response determinations were evaluated using a 1:1 binding model. KD values were determined by Biacore S200 Evaluation Software Version 1.0. assuming 1:1 binding. For compounds approaching saturation, Rmax was floated. For compounds with insufficient curvature, Rmax was fixed based on a control. Errors were determined as the standard error in the dose-response fit, as calculated by Biacore S200 Evaluation Software.
For orientation: In SPR one partner is held on a chip, and binding of the other changes the refractive index at the surface.

Test [1] addresses T3, HIV-1 RT K103N/Y181C mutant (Human immunodeficiency virus type 1 group M subtype B, UniProt P03367, K702N/Y780C).
T3 construct: The p66/p51 HIV-1 RT heterodimer engineered with a N-terminal histidine tag; His tag (histidine tag) (N); made in house; host or cells: Escherichia coli strain M15 (vector pRT6H-PR)
As to the kind of experiment: DDDP activity assay, K103N/Y181C RT mutant. The class given is biochemical. How it is done: as §1, §2, §3, §4

The target of test [2] is T4, His-tagged HIV-1 RT K103N (Human immunodeficiency virus type 1 group M subtype B, UniProt P03367, K702N).
T4 construct: The p66/p51 HIV-1 RT heterodimer engineered with a N-terminal histidine tag; His tag (histidine tag) (N); made in house; host or cells: Escherichia coli strain M15 (vector pRT6H-PR)
In words: Surface plasmon resonance, K103N RT. Conditions: ± standard error of dose–response fit, n = 1; NB = no binding observed; read-out: SPR—KD, K103N. Here is the method: as §5, §6

Where [3] appears, read: WT, PicoGreen or 33P radiolabeled assay, value not marked as PicoGreen, n ≥ 2.
Setting [4] is: WT (PicoGreen assay), nonradioactive PicoGreen assay.
Where [5] appears, read: read-out: SPR—KD, WT, ± standard error of dose–response fit, n = 1, NB = no binding observed.

Read-outs that look alike come from different tables or passages of the source. A value given as a limit tells only on which side of the number the result lay.

By IC50 is commonly meant the point on the concentration scale where inhibition reaches its midpoint. Regarding `CCOC(=O)c1cnn2cc(Br)cc(OC)c12` [compound 13, Ethyl 6-Bromo-4-methoxypyrazolo[1,5-a]pyridine-3-carboxylate], at recombinant WT HIV-1 RT (setting [3]), the IC50 is above 1000 µM.
Take `CCCOC(=O)c1cnn2cccc(Br)c12` [compound 19, Propyl 4-bromopyrazolo[1,5-a]pyridine-3-carboxylate]: the IC50 at recombinant WT HIV-1 RT (setting [4]) was above 1000 µM.
By Kd is commonly meant the concentration at which binding is half-saturated. Regarding `CCOC(=O)c1cnn2c(C)ccc(Br)c12` [compound 9, Ethyl 4-Bromo-7-methylpyrazolo[1,5-a]pyridine-3-carboxylate], the half-inhibitory concentration (IC50) on recombinant WT HIV-1 RT (setting [4]) is 155 ± 19 µM. The “Ligand efficiency (LE)” value on recombinant WT HIV-1 RT was determined as 0.33 kcal/mol/HA. Further, at His-tagged HIV-1 RT WT (setting [5]), the Kd is above 200 µM.
With `CCOC(=O)c1cnn2ccc(C)cc12` [compound 3, Ethyl 5-Methylpyrazolo[1,5-a]pyridine-3-carboxylate], the IC50 at recombinant WT HIV-1 RT (setting [3]) was above 1000 µM.
`CCOC(=O)c1cnn2cccc(C#CCCCCCO)c12` [compound 26, Ethyl 4-(7-Hydroxyhept-1-yn-1-yl)pyrazolo[1,5-a]pyridine-3-carboxylate]: the “fold improvement on parent compound B-1” value on recombinant WT HIV-1 RT is on record as above 20 fold. Further, the figures for the IC50 (at recombinant WT HIV-1 RT (setting [3]); in test [1]) were 24 ± 6 µM and 35 ± 7 µM, respectively. Moreover, the “Ligand efficiency (LE)” value on recombinant WT HIV-1 RT amounted to 0.30 kcal/mol/HA. Moreover, the Kd on His-tagged HIV-1 RT WT stood at 173 ± 9 µM; in test [2], 233 ± 22 µM.
On to `CCOC(=O)c1cnn2cc(OC)cc(Br)c12` [compound 10, Ethyl 4-Bromo-6-methoxypyrazolo[1,5-a]pyridine-3-carboxylate], for which, at recombinant WT HIV-1 RT (setting [4]), the IC50 came out at 315 ± 19 µM. Besides, the “Ligand efficiency (LE)” value at recombinant WT HIV-1 RT worked out at 0.29 kcal/mol/HA. The Kd on His-tagged HIV-1 RT WT was determined as 1570 ± 105 µM; in test [2], 757 ± 81 µM.
As for `CCNC(=O)c1cnn2cccc(Br)c12` [compound 20, 4-Bromo-N-ethylpyrazolo[1,5-a]pyridine-3-carboxamide], on recombinant WT HIV-1 RT (setting [3]), the IC50 was above 1000 µM.
For the compound `O=C(O)c1cnn2cccc(Br)c12` [compound 17, 4-Bromopyrazolo[1,5-a]pyridine-3-carboxylic Acid], the IC50 on recombinant WT HIV-1 RT (setting [3]) is above 1000 µM. The Kd at His-tagged HIV-1 RT WT (setting [5]) is above 200 µM.
For the compound `CCOC(=O)c1cnn2ccc(NC(=O)OC(C)(C)C)cc12` [compound 16, Ethyl 5-((Tert-butoxycarbonyl)amino)pyrazolo[1,5-a]pyridine-3-carboxylate], the half-inhibitory concentration (IC50) on recombinant WT HIV-1 RT (setting [3]) was above 1000 µM.
For the compound `CCCC#Cc1cccn2ncc(C(=O)OCC)c12` [compound 28, Ethyl 4-(pent-1-yn-1-yl)pyrazolo[1,5-a]pyridine-3-carboxylate], the “fold improvement on parent compound B-1” value on recombinant WT HIV-1 RT is above 20 fold. Besides, the figures for the IC50 (at recombinant WT HIV-1 RT (setting [3]); in test [1]) were 53 ± 4 µM and 105 ± 6 µM, respectively. The “Ligand efficiency (LE)” value on recombinant WT HIV-1 RT is given as 0.32 kcal/mol/HA. The compound also returned a Kd on His-tagged HIV-1 RT WT of 275 ± 9 µM.
With `CCOC(=O)c1cnn2c(C)ccc(Cl)c12` [compound 12, Ethyl 4-Chloro-7-methylpyrazolo[1,5-a]pyridine-3-carboxylate], the IC50 on recombinant WT HIV-1 RT (setting [4]) is above 1000 µM.
The same measure, in the same setting: with `Cc1ccnc2c1NC(=O)c1cccnc1N2C1CC1` [Nevirapine, nevirapine, reference compound] the figure was 0.44 ± 0.03 µM.
As to `CCOC(=O)c1cnn2cccc(C#CCCO)c12` [compound 25, Ethyl 4-(4-Hydroxybut-1-yn-1-yl)pyrazolo[1,5-a]pyridine-3-carboxylate], the half-inhibitory concentration (IC50) on recombinant WT HIV-1 RT (setting [3]) was above 1000 µM.
For `C#Cc1cccn2ncc(C(=O)OCC)c12` [compound 29, Ethyl 4-ethynylpyrazolo[1,5-a]pyridine-3-carboxylate], on recombinant WT HIV-1 RT, the “fold improvement on parent compound B-1” value is above 20 fold. The IC50 came out at 27 ± 26 µM at recombinant WT HIV-1 RT (setting [3]) and 43 ± 14 µM in test [1]. Further, the “Ligand efficiency (LE)” value on recombinant WT HIV-1 RT is listed as 0.40 kcal/mol/HA. On His-tagged HIV-1 RT WT, this compound registered a Kd of 395 ± 35 µM.
Turning to `CCOC(=O)c1cnn2ccc(C(=O)OC)cc12` [compound 15, 3-Ethyl 5-Methylpyrazolo[1,5-a]pyridine-3,5-dicarboxylate], the IC50 at recombinant WT HIV-1 RT (setting [3]) was above 1000 µM.
Take `CCOC(=O)c1cnn2cc(Br)ccc12` [compound 7, Ethyl 6-Bromopyrazolo[1,5-a]pyridine-3-carboxylate]: the IC50 at recombinant WT HIV-1 RT (setting [3]) is above 1000 µM.
For the compound `CCOC(=O)c1cnn2cccc(C#CCN(C)C)c12` [compound 24, Ethyl 4-(3-(Dimethylamino)prop-1-yn-1-yl)pyrazolo[1,5-a]pyridine-3-carboxylate], the IC50 on recombinant WT HIV-1 RT (setting [3]) was above 1000 µM.
`O=C(NCCc1ccc(O)cc1)c1cnn2cccc(Br)c12` [compound 22, 4-Bromo-N-(4-hydroxyphenethyl)pyrazolo[1,5-a]pyridine-3-carboxamide]: the half-inhibitory concentration (IC50) at recombinant WT HIV-1 RT (setting [4]) is 111 µM.
As to `COC(=O)c1cnn2cccc(Br)c12` [compound 18, Methyl 4-Bromopyrazolo[1,5-a]pyridine-3-carboxylate], at recombinant WT HIV-1 RT (setting [4]), the IC50 is above 1000 µM.
On to `CCOC(=O)c1cnn2cc(C)ccc12` [compound 4, Ethyl 6-Methylpyrazolo[1,5-a]pyridine-3-carboxylate], for which the IC50 at recombinant WT HIV-1 RT (setting [3]) is above 1000 µM.
Take `CCOC(=O)c1cnn2c(C)cc(Cl)cc12` [compound 14, Ethyl 5-Chloro-7-methylpyrazolo[1,5-a]pyridine-3-carboxylate]: on recombinant WT HIV-1 RT (setting [3]), the IC50 was above 1000 µM. Also, the Kd on His-tagged HIV-1 RT WT (setting [5]) was above 200 µM.
As for `CCOC(=O)c1cnn2c(C)ccc(F)c12` [compound 11, Ethyl 4-Fluoro-7-methylpyrazolo[1,5-a]pyridine-3-carboxylate], the IC50 on recombinant WT HIV-1 RT (setting [4]) is above 1000 µM. The dissociation constant (Kd) on His-tagged HIV-1 RT WT (setting [5]) is above 200 µM.

For the origin of these results see PMC10095864, “Targeting HIV-1 Reverse Transcriptase Using a Fragment-Based Approach” (Molecules, 2023).
